Laboratory results from PubChem BioAssay AID330 (DTP/NCI, 2004).
“And” between values parts separate entries of the source, which are not always exact repeats. Equal entries are not always repeated. Inconclusive results and toxic doses are left out.

System: P388 leukemia ip, CD2F1 mice, survival T/C
Test: NCI In Vivo Anticancer Drug Screen. Data for tumor model P388 Leukemia (intraperitoneal) in CD2F1 (CDF1) mice
Conditions: endpoint: median survival time, higher = longer survival
In short: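 Mice carrying the transplanted tumor received test compound or vehicle. Survival was recorded in each group, and the value is the treated-group measurement divided by that of the vehicle-treated control group.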

## COc1cccc2c1C(=O)c1c(O)c3c(c(O)c1C2=O)CC(O)(C(=O)CO)CC3OC1CC(N)C(O)C(C)O1 (configuration not stated)
dose: 0.03 mg/kg/injection, schedule: Q04DX003 (ip), vehicle: other
  T/C: 104 % of control
dose: 0.05 mg/kg/injection, schedule: Q04DX003 (ip), vehicle: other
  T/C: 104 % of control
dose: 0.05 mg/kg/injection, schedule: Q04DX003 (ip), vehicle: saline
  T/C: 110 % of control
dose: 0.08 mg/kg/injection, schedule: Q04DX003 (ip), vehicle: other
  T/C: 115 % of control
dose: 0.1 mg/kg/injection, schedule: Q04DX003 (ip), vehicle: other
  T/C: 98 % of control
dose: 0.12 mg/kg/injection, schedule: Q04DX003 (ip), vehicle: other
  T/C: 122 % of control
dose: 0.3 mg/kg/injection, schedule: Q04DX003 (ip), vehicle: other
  T/C: 112 % of control
dose: 0.38 mg/kg/injection, schedule: Q01DX009 (ip), vehicle: water
  T/C: 150 % of control
dose: 0.5 mg/kg/injection, schedule: Q04DX003 (ip), vehicle: other
  T/C: 100 % of control
dose: 0.6 mg/kg/injection, schedule: Q04DX003 (ip), vehicle: saline
  T/C: 154 % of control
dose: 0.75 mg/kg/injection, schedule: Q01DX009 (ip), vehicle: water
  T/C: 159 % of control
dose: 1.0 mg/kg/injection, schedule: Q04DX003 (ip), vehicle: other
  T/C: 100 % of control
dose: 1.0 mg/kg/injection, schedule: Q04DX003 (ip), vehicle: saline
  T/C: 110 % of control and 106 % of control
dose: 1.13 mg/kg/injection, schedule: Q04DX003 (ip), vehicle: water
  T/C: 120 % of control
dose: 1.3 mg/kg/injection, schedule: Q04DX003 (ip), vehicle: other
  T/C: 152 % of control
dose: 1.3 mg/kg/injection, schedule: Q04DX003 (ip), vehicle: saline
  T/C: 156 % of control
dose: 1.5 mg/kg/injection, schedule: Q01DX009 (ip), vehicle: water
  T/C: 165 % of control
dose: 1.56 mg/kg/injection, schedule: Q04DX003 (ip), vehicle: saline
  T/C: 163 % of control
dose: 1.9 mg/kg/injection, schedule: Q04DX003 (ip), vehicle: other
  T/C: 153 % of control
dose: 1.9 mg/kg/injection, schedule: Q04DX003 (ip), vehicle: saline
  T/C: 156 % of control
dose: 2.0 mg/kg/injection, schedule: Q04DX003 (ip), vehicle: other
  T/C: 97 % of control
dose: 2.0 mg/kg/injection, schedule: Q04DX003 (ip), vehicle: saline
  T/C: 113 % of control and 116 % of control
dose: 2.25 mg/kg/injection, schedule: Q04DX003 (ip), vehicle: water
  T/C: 121 % of control
dose: 2.8 mg/kg/injection, schedule: Q04DX003 (ip), vehicle: other
  T/C: 169 % of control
dose: 2.8 mg/kg/injection, schedule: Q04DX003 (ip), vehicle: saline
  T/C: 182 % of control
dose: 2.9 mg/kg/injection, schedule: Q01DX009 (ip), vehicle: saline
  T/C: 104 % of control
dose: 3.0 mg/kg/injection, schedule: Q01DX009 (ip), vehicle: water
  T/C: 158 % of control
dose: 3.0 mg/kg/injection, schedule: Q04DX003 (ip), vehicle: water
  T/C: 114 % of control
dose: 3.12 mg/kg/injection, schedule: Q04DX003 (ip), vehicle: saline
  T/C: 170 % of control
dose: 3.13 mg/kg/injection, schedule: Q01DX009 (ip), vehicle: water
  T/C: 163 % of control
dose: 3.13 mg/kg/injection, schedule: Q04DX003 (ip), vehicle: other
  T/C: 118 % of control
dose: 4.0 mg/kg/injection, schedule: Q04DX003 (ip), vehicle: other
  T/C: 115 % of control
dose: 4.0 mg/kg/injection, schedule: Q04DX003 (ip), vehicle: saline
  T/C: 119 % of control
dose: 4.2 mg/kg/injection, schedule: Q04DX003 (ip), vehicle: other
  T/C: 179 % of control
dose: 4.2 mg/kg/injection, schedule: Q04DX003 (ip), vehicle: saline
  T/C: 180 % of control
dose: 5.8 mg/kg/injection, schedule: Q01DX009 (ip), vehicle: saline
  T/C: 124 % of control
dose: 6.0 mg/kg/injection, schedule: Q01DX009 (ip), vehicle: water
  T/C: 183 % of control
dose: 6.25 mg/kg/injection, schedule: Q01DX009 (ip), vehicle: water
  T/C: 200 % of control
dose: 6.25 mg/kg/injection, schedule: Q04DX003 (ip), vehicle: other
  T/C: 120 % of control
dose: 6.25 mg/kg/injection, schedule: Q04DX003 (ip), vehicle: saline
  T/C: 170 % of control
dose: 6.3 mg/kg/injection, schedule: Q04DX003 (ip), vehicle: other
  T/C: 179 % of control
dose: 6.3 mg/kg/injection, schedule: Q04DX003 (ip), vehicle: saline
  T/C: 168 % of control
dose: 7.5 mg/kg/injection, schedule: Q04DX003 (ip), vehicle: clinical formulation
  T/C: 161 % of control
dose: 8.0 mg/kg/injection, schedule: Q04DX003 (ip), vehicle: saline
  T/C: 109 % of control
dose: 9.0 mg/kg/injection, schedule: Q04DX003 (ip), vehicle: water
  T/C: 121 % of control
dose: 9.5 mg/kg/injection, schedule: Q04DX003 (ip), vehicle: other
  T/C: 179 % of control
dose: 9.5 mg/kg/injection, schedule: Q04DX003 (ip), vehicle: saline
  T/C: 208 % of control
dose: 10.0 mg/kg/injection, schedule: Q04DX003 (ip), vehicle: water
  T/C: 112 % of control
dose: 12.0 mg/kg/injection, schedule: Q01DX009 (ip), vehicle: water
  T/C: 204 % of control
dose: 12.0 mg/kg/injection, schedule: Q04DX003 (ip), vehicle: water
  T/C: 116 % of control
dose: 12.5 mg/kg/injection, schedule: Q01DX009 (ip), vehicle: water
  T/C: 229 % of control
dose: 14.2 mg/kg/injection, schedule: Q04DX003 (ip), vehicle: other
  T/C: 198 % of control
dose: 14.2 mg/kg/injection, schedule: Q04DX003 (ip), vehicle: saline
  T/C: 193 % of control
dose: 15.0 mg/kg/injection, schedule: Q04DX003 (ip), vehicle: clinical formulation
  T/C: 152 % of control
dose: 16.0 mg/kg/injection, schedule: Q04DX003 (ip), vehicle: saline
  T/C: 119 % of control
dose: 21.3 mg/kg/injection, schedule: Q04DX003 (ip), vehicle: other
  T/C: 207 % of control
dose: 21.3 mg/kg/injection, schedule: Q04DX003 (ip), vehicle: saline
  T/C: 86 % of control
dose: 22.5 mg/kg/injection, schedule: Q04DX003 (ip), vehicle: water
  T/C: 109 % of control and 115 % of control
dose: 23.4 mg/kg/injection, schedule: Q01DX009 (ip), vehicle: saline
  T/C: 123 % of control and 217 % of control
dose: 25.0 mg/kg/injection, schedule: Q01DX009 (ip), vehicle: water
  T/C: 220 % of control
dose: 25.0 mg/kg/injection, schedule: Q04DX003 (ip), vehicle: saline
  T/C: 98 % of control
dose: 32.0 mg/kg/injection, schedule: Q04DX003 (ip), vehicle: other
  T/C: 160 % of control
dose: 32.0 mg/kg/injection, schedule: Q04DX003 (ip), vehicle: saline
  T/C: 172 % of control
dose: 36.0 mg/kg/injection, schedule: Q04DX003 (ip), vehicle: water
  T/C: 163 % of control
dose: 44.0 mg/kg/injection, schedule: Q04DX003 (ip), vehicle: water
  T/C: 110 % of control
dose: 45.0 mg/kg/injection, schedule: Q04DX003 (ip), vehicle: water
  T/C: 124 % of control
dose: 48.0 mg/kg/injection, schedule: Q04DX003 (ip), vehicle: other
  T/C: 87 % of control
dose: 48.0 mg/kg/injection, schedule: Q04DX003 (ip), vehicle: water
  T/C: 175 % of control and 294 % of control
dose: 50.0 mg/kg/injection, schedule: Q01DX009 (ip), vehicle: water
  T/C: 117 % of control
dose: 50.0 mg/kg/injection, schedule: Q04DX003 (ip), vehicle: other
  T/C: 161 % of control
dose: 64.0 mg/kg/injection, schedule: Q04DX003 (ip), vehicle: saline
  T/C: 167 % of control and 153 % of control
dose: 72.0 mg/kg/injection, schedule: Q04DX003 (ip), vehicle: other
  T/C: 93 % of control
dose: 72.0 mg/kg/injection, schedule: Q04DX003 (ip), vehicle: water
  T/C: 196 % of control
dose: 80.0 mg/kg/injection, schedule: Q04DX003 (ip), vehicle: water
  T/C: 118 % of control
dose: 90.0 mg/kg/injection, schedule: Q04DX003 (ip), vehicle: water
  T/C: 159 % of control and 174 % of control
dose: 108.0 mg/kg/injection, schedule: Q04DX003 (ip), vehicle: other
  T/C: 88 % of control
dose: 108.0 mg/kg/injection, schedule: Q04DX003 (ip), vehicle: water
  T/C: 163 % of control
dose: 128.0 mg/kg/injection, schedule: Q04DX003 (ip), vehicle: other
  T/C: 182 % of control
dose: 128.0 mg/kg/injection, schedule: Q04DX003 (ip), vehicle: saline
  T/C: 204 % of control and 184 % of control
dose: 160.0 mg/kg/injection, schedule: Q04DX003 (ip), vehicle: water
  T/C: 95 % of control
dose: 180.0 mg/kg/injection, schedule: Q04DX003 (ip), vehicle: water
  T/C: 168 % of control
dose: 256.0 mg/kg/injection, schedule: Q04DX003 (ip), vehicle: other
  T/C: 175 % of control
dose: 256.0 mg/kg/injection, schedule: Q04DX003 (ip), vehicle: saline
  T/C: 110 % of control and 213 % of control
dose: 267.0 mg/kg/injection, schedule: Q04DX003 (ip), vehicle: water
  T/C: 109 % of control
dose: 360.0 mg/kg/injection, schedule: Q04DX003 (ip), vehicle: water
  T/C: 97 % of control
dose: 400.0 mg/kg/injection, schedule: Q04DX003 (ip), vehicle: water
  T/C: 99 % of control
dose: 512.0 mg/kg/injection, schedule: Q04DX003 (ip), vehicle: saline
  T/C: 90 % of control
